In patent US20100112012A1, “MODULATION OF IMMUNE RESPONSES” (CLEVELAND CLINIC FOUNDATION, priority 2005, published 2010):
Entries after “also recorded” stand apart in the source; their conditions may differ. Read-outs that look alike come from different tables or passages of the source.

Legend:
RCC cell lines = assay: Growth inhibition assay, RCC, non-RCC and normal kidney (NKE) cells; format: cell-based, human; conditions: 6 RCC and 6 non-RCC cell lines, growth inhibition assay
Description: Growth inhibition assay. […] Cell survival was estimated after an additional 48 hours, using standard Methylene Blue staining followed by extraction and colorimetrical detection of the dye.

histone H2A.X = assay: Immunofluorescent detection of phosphorylated histone H2A.X; format: cell-based, human; conditions: HT1080 cells, 10 μM
Text: All washings were done with blocking solution.

p53 [1] = assay: p53 reporter in organ cultures of human RCC tumor samples; format: cell-based; conditions: 12 hours
Description: FIG. 11. QC can activate p53 transactivation in organ cultures of human RCC tumor samples. Fresh surgically removed samples of tumor and adjacent normal kidney were cut into small pieces and put into media containing ConALacZ virus (5×10^7 TU/ml) with […] of polybrene for 4 hours. 24 hours after infection, tissue pieces (at least three per treatment) were incubated with media containing quinacrine or doxorubicin for 12 hours. Then the tissues were fixed for 30 min in PBS containing 0.5% glutaraldehyde and 1 mM MgCl2. Pieces of tumor were stained in PBS solution containing X-gal (1 mM MgCl2, 3.3 mM K4Fe(CN)6, 3.3 mM K3Fe(CN)6, 0.02% NP40, 0.2% X-gal) overnight at 37° C. Stained specimens were analyzed microscopically by squeezing pieces of tumor and normal tissues between two glass slides.

[2] = tested on: MHC-mismatched heart grafts; conditions: quinacrine on days −2, −1, +5, +14, +16; for survival of heart allografts: A/J donors to C57BL/6
Description: Heterotopic cardiac transplants were performed using microsurgical techniques. Briefly, donor hearts were harvested and placed in chilled Ringer's solution while the recipient mice were prepared. […] Upon completion of the anastomoses and organ reperfusion, the heart grafts resumed spontaneous contraction. The strength and quality of cardiac graft impulses were monitored each day by palpation of the abdomen. Rejection of cardiac grafts was considered complete by cessation of impulse and was confirmed visually for each graft by laparotomy.

[3] = tested on: androgen receptor, N-Myc, CLOCK/Bmal and Smad; assay: Reporter activity of other transcriptional activators; format: cell-based; conditions: data not shown
p53 [4] = assay: Screening for p53-activating compounds, p53-responsive reporter in RCC45ConALacZ cells; format: cell-based, human
Description: Transient transfections. 2×10^5 cells were plated into 6-well plates and, after overnight incubation, transfected with Lipofectamin Plus reagent (Gibco BRL) with 0.5 μg of reporter plasmids (p21-ConALuc or pNF-κBLuc) in combination with different concentrations of plasmids expressing p53, Arf, Ss-IκB, or siHDM2. Corresponding empty vectors were added in all transfections up to 2 μg of total DNA. Normalization of transfection efficiency was done by adding 0.2 μg of pCMV-LacZ plasmid. Luciferase activity and β-galactosidase activity were measured in lysates prepared 48 hours after transfection with Cell Lysis Buffer (Promega) by the luciferase assay system (Promega) or β-galactosidase enzyme system (Promega). Luminometric and colorimetric reactions were read on the Wallack 1420 plate reader (Perkin Elmer). Stable transduction of reporters. 2×10^4 cells with integrated reporter were plated in 96-well plates. After overnight incubation, chemicals or media from lentivirus-producing cells were added. At different times, cell lysates were prepared using Reporter Lysis Buffer (Promega). Luciferase or β-galactosidase activity and protein concentration were measured in aliquots of cell lysates using standard kits (Promega, Luciferase and β-galactosidase assay systems, Biorad Protein Assay Kit).
The DiverSet library of 34,000 chemical compounds and focused libraries of structural analogues of selected hits were provided by Chembridge, Calif. Cell lines with p53- or NF-κB-responsive luciferase or β-galactosidase reporters were described previously (5, 7). For screening chemicals, 2×10^4 RCC45ConALacZ cells (RCC45-based p53 reporter cells) were plated per well of 96-well plates in 200 μL of phenol-red-free RPMI medium with standard additions. After overnight incubation, the compounds were added to final concentrations of 5-15 μM (0.2 μL of compound in DMSO per well). […] After 24 h, lysis buffer with ortho-nitrophenyl-β-D-galactopyranoside (ONPG) was added and β-galactosidase activity was estimated colorimetrically by a multiwell plate reader.

[5] = tested on: contact hypersensitivity (CHS) response; assay: Hapten sensitization and elicitation of contact hypersensitivity; format: in vivo, BALB/c mice; conditions: 24 hours after challenge
Description: For sensitization to DNFB, mice were painted on days 0 and +1 with 25 ml of 0.25% 2,4-dinitrofluorobenzene (DNFB) (Sigma Chemical, Co.) on the shaved abdomen and 5 ml on each footpad. On day +5 sensitized and, as a negative control, unsensitized mice were challenged with 10 ml of 0.2% DNFB on both sides of each ear. Ear thickness was measured in a blinded manner at 24 h intervals after challenge using an engineer's micrometer (Mitutoyo, Elk Grove Village, Ill.) and expressed in units of 10^−4 inches. The magnitude of ear swelling responses is presented in FIG. 12 as the mean increase of each group of 4 sensitized or non-sensitized mice (i.e. […]) ±SEM over the thickness measured just prior to hapten challenge on day +5 post-sensitization. […] Control mice received injections with an equal volume of PBS.

IκBα = IκBα level (Western analysis); format: cell-based, human; conditions: TNF 10 ng/ml, 9AA 10 μM
Description: Cells were lysed in RIPA buffer (25 mM Tris HCl, pH 7.2, 125 mM NaCl, 1% NP40, 1% sodium deoxycholate, 1 mM EDTA) containing 1 mM PMSF (Sigma), 10 ug/ml of aprotinin (Sigma) and 10 ug/ml of leupeptin (Sigma). Protein concentrations were determined with the BioRad Dc protein assay kit. Equal protein amounts were run on gradient 4-20% precast gels (Novex) and blotted onto PVDF membranes (Amersham). The following antibodies were used: anti-p53—monoclonal mouse DO1 (Santa-Cruz), anti-p21—monoclonal mouse F-5 (Santa-Cruz), anti-mdm2—monoclonal mouse SMP14 (Santa-Cruz), anti-p65—(C20, Santa Cruz), anti-phospho-p65—(ser536, Cell Signaling), anti-IκBa—(C21, Santa Cruz), anti-p50—(NLS, Santa Cruz), anti-IKK1 (Cell Signaling), anti-γH2X (Cell Signaling), anti-actin (Santa Cruz). p53 phosphorylation status was analyzed using the phospho-p53 sampler kit from Cell Signaling according to the manufacturer's recommendations. HRP-conjugated secondary antibodies were purchased from Santa Cruz. Quantitation of the data was performed using Quantity One software from BioRad.

For `CCN(CC)CCCC(C)Nc1c2ccc(Cl)cc2nc2ccc(OC)cc12` (stereo not drawn) [QC, quinacrine], the “IC50 in RCC cells compared with non-RCC cells” value (RCC cell lines) was “in the same range as for non-RCC cells”, the “phosphorylation of histone H2A.X” value (histone H2A.X) was “Neither 9AA nor QC induced phosphorylation of histone H2A.X” and the “p53-responsive reporter induction in normal kidney samples” value (p53 [1]; organ cultures of adjacent normal kidney) was “no reporter induction”. The “expression of a p53-responsive reporter in tumor samples” value (p53 [1]; organ cultures of human RCC) was “can be also detected in short-term organ cultures; also recorded: induced expression of a p53-responsive reporter in tumor samples”, the “survival of heart allografts” value ([2]; listed as Quinacrine) was “extended the survival of all grafts” and the “survival of heart allografts” value ([2]; listed as quinacrine) was “significant prolongation of allograft survival”. For the same molecule, the “rejection of heart allografts” value ([2]; groups of 5) was “absence of rejection in one of the allografts”, the “activity of other transcriptional activators (androgen receptor, N-Myc, CLOCK/Bmal and Smad)” value [3] was “did not change the activity” and the “activation of the p53-dependent reporter (p53 transactivation) in RCC” value (p53 [4]) was “effective inducer of p53 transactivation in RCC”. The CHS/ear swelling response ([5]; quinacrine 80 mg/kg i.p. on days −2 and −1 (just prior to DNFB sensitization)) was “inhibits the priming of antigen-specific T cells (FIG. 13) and the magnitude and duration of the allergic response elicited; also recorded: decreased the CHS/ear swelling response to near the level observed following challenge of non-immune, naïve mice”, the CHS/ear swelling response ([5]; quinacrine on days 0 and +1 (during DNFB sensitization)) was “increased the magnitude and persistence of the antigen-specific T cell response; also recorded: increased the CHS response to the challenge” and the “TNF-stimulated induction of IκBα” value (IκBα) was “blocked”.
